The values that follow come from US9108983B2, “Pyrrole compounds, a process for their preparation and pharmaceutical compositions containing them” (LES LABORATOIRES SERVIER, priority 2013, dated 2015).

Molecules are shown by their SMILES. Structures can show the parent of a compound that is named as a salt. Where two headings read alike, the source gives them in different places.

In one experiment the target is Bcl-2 protein (histag-Bcl-2, UniProtKB P10415) (Homo sapiens (Human), UniProt P10415). Nature of the experiment: Inhibition of Bcl-2 by the fluorescence polarisation technique. Particulars: incubation for 2 hours. In kind it is binding. Summed up:
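In pH 7.4 buffer (Hepes 10 mM, NaCl 150 mM, Tween20 0.05%), test compounds at increasing concentrations competed with a fluorescein peptide (1.00×10^−8 M final) for histag-Bcl-2 (2.50×10^−8 M final). Readout was fluorescence polarisation after a 2 h incubation.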
(In fluorescence polarisation assays a small probe gives low polarisation when free and higher when bound to something large.)

For experiment [1], the system named is RS4;11 leukaemia tumour line. Nature of the experiment: In vitro cytotoxicity (Microculture Tetrazolium Assay). The class given is cell-based. Particulars: RS4;11 cells, exposed for 48 hours, cell viability, read-out: IC50 (nM) MTT RS4;11. How it is done:
The cytotoxicity studies were carried out on the RS4;11 leukaemia tumour line.
The cells are distributed onto microplates and exposed to the test compounds for 48 hours.
The cell viability is then quantified by a colorimetric assay, the Microculture Tetrazolium Assay (Cancer Res., 1987, 47, 939-942).

Bcl-2 protein, sequence (P10415 whole entry): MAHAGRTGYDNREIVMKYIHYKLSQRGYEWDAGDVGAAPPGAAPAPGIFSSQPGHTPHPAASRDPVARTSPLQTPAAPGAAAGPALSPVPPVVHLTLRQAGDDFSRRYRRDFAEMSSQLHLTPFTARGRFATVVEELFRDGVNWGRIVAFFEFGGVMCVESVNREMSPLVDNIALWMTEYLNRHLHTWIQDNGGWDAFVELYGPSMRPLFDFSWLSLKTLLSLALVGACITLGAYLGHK

What is called IC50 is the concentration that inhibits the measured activity by half. Take `Cc1c(C(=O)N(c2ccc(O)cc2)c2cnc3c(ccn3C)c2)cc(-c2cc3c(cc2C(=O)N2Cc4ccccc4C[C@H]2CN2CCOCC2)OCO3)n1C` [Example 44, N-(4-Hydroxyphenyl)-1,2-dimethyl-N-(1-methyl-1H-pyrrolo[2,3-b]-pyridin-5-yl)-5-(6-{[(3S)-3-(morpholin-4-ylmethyl)-3,4-dihydroisoquinolin-2(1H)-yl]carbonyl}-1,3-benzodioxol-5-yl)-1H-pyrrole-3-carboxamide hydrochloride]: the IC50 on Bcl-2 protein (read-out: IC50 (nM) Bcl-2 FP) was determined as 3 nM; in experiment [1] (Homo sapiens, RS4-11, 48 h), 5.41 nM.
`Cc1c(C(=O)N(C)c2ccc(O)cc2)cc(-c2cc(CCNC(=O)Oc3ccccc3)ccc2C(=O)N2Cc3ccccc3C[C@H]2C)n1C` [Example 45, Phenyl[2-(3-{4-[(4-hydroxyphenyl)(methyl)carbamoyl]-1,5-dimethyl-1H-pyrrol-2-yl}-4-{[(3R)-3-methyl-3,4-dihydroisoquinolin-2(1H)-yl]carbonyl}-phenyl)ethyl]carbamate]: the results for the IC50 (against Bcl-2 protein (IC50 (nM) Bcl-2 FP); in experiment [1] (Homo sapiens)) were 38.9 nM and 403 nM, respectively.
As for `Cc1c(C(=O)N(C)c2ccc(O)cc2)cc(-c2cc(CCNC(=O)COc3ccccc3)ccc2C(=O)N2Cc3ccccc3C[C@H]2C)n1C` [Example 46, N-(4-Hydroxyphenyl)-N,1,2-trimethyl-5-(2-{[(3R)-3-methyl-3,4-dihydroisoquinolin-2(1H)-yl]carbonyl}-5-{2-[(phenoxyacetyl)amino]ethyl}phenyl)-1H-pyrrole-3-carboxamide], the IC50 at Bcl-2 protein (read-out: IC50 (nM) Bcl-2 FP) is 76.6 nM; in experiment [1] (Homo sapiens, RS4-11, 48 h), greater than 600 nM.
In the case of `COc1ncc(N(C(=O)c2cc(-c3cc4c(cc3C(=O)N3Cc5ccccc5C[C@H]3C)OCO4)n(C)c2C)c2ccc(O)cc2)cn1` [Example 48, N-(4-Hydroxyphenyl)-N-(2-methoxypyrimidin-5-yl)-1,2-dimethyl-5-(6-{[(3R)-3-methyl-3,4-dihydroisoquinolin-2(1H)-yl]carbonyl}-1,3-benzodioxol-5-yl)-1H-pyrrole-3-carboxamide], the IC50 turned out to be 4.4 nM on Bcl-2 protein (read-out: IC50 (nM) Bcl-2 FP) and 14.9 nM in experiment [1] (Homo sapiens, RS4-11, 48 h).
`Cc1c(C(=O)N(c2ccc(O)cc2)c2cnc3c(c2)CCN3C)cc(-c2cc3c(cc2C(=O)N2Cc4ccccc4C[C@H]2CN2CCOCC2)OCO3)n1C` [Example 49, N-(4-Hydroxyphenyl)-1,2-dimethyl-N-(1-methyl-2,3-dihydro-1H-pyrrolo[2,3-b]pyridin-5-yl)-5-(6-{[(3S)-3-(morpholin-4-ylmethyl)-3,4-dihydroisoquinolin-2(1H)-yl]carbonyl}-1,3-benzodioxol-5-yl)-1H-pyrrole-3-carboxamide dihyrochloride]: the IC50 at Bcl-2 protein (read-out: IC50 (nM) Bcl-2 FP) is 4 nM; in experiment [1] it was 14.1 nM.
`COc1ncc(N(C(=O)c2cc(-c3cc4c(cc3C(=O)N3Cc5ccccc5C[C@H]3CN3CCOCC3)OCO4)n(C)c2C)c2ccc(O)cc2)cn1` [Example 50, N-(4-Hydroxyphenyl)-N-(2-methoxypyrimidin-5-yl)-1,2-dimethyl-5-(6-{[(3S)-3-(morpholin-4-ylmethyl)-3,4-dihydroisoquinolin-2(1H)-yl]carbonyl}-1,3-benzodioxol-5-yl)-1H-pyrrole-3-carboxamide hydrochloride]: the IC50 on Bcl-2 protein (read-out: IC50 (nM) Bcl-2 FP) was 5.9 nM; in experiment [1] (Homo sapiens, RS4-11, 48 h) it was 33.1 nM.
The like results for `Cc1c(C(=O)N(C)c2ccc(O)cc2)cc(-c2cc(CNC(=O)NCc3ccccc3)ccc2C(=O)N2Cc3ccccc3C[C@H]2C)n1C` [Example 51, 5-(5-{[(Benzylcarbamoyl)amino]methyl}-2-{[(3R)-3-methyl-3,4-dihydroisoquinolin-2(1H)-yl]carbonyl}phenyl)-N-(4-hydroxyphenyl)-N,1,2-trimethyl-1H-pyrrole-3-carboxamide] were, in that order, 26.7 nM and 354 nM.
The like results for `CCNC(=O)NCc1ccc(C(=O)N2Cc3ccccc3C[C@H]2C)c(-c2cc(C(=O)N(C)c3ccc(O)cc3)c(C)n2C)c1` [Example 52, 5-(5-{[(Ethylcarbamoyl)amino]methyl}-2-{[(3R)-3-methyl-3,4-dihydroisoquinolin-2(1H)-yl]carbonyl}phenyl)-N-(4-hydroxyphenyl)-N,1,2-trimethyl-1H-pyrrole-3-carboxamide] were, in that order, 28.9 nM and 433 nM.
The like results for `Cc1c(C(=O)N(C)c2ccc(O)cc2)cc(-c2cc(CNC(=O)COc3ccccc3)ccc2C(=O)N2Cc3ccccc3C[C@H]2C)n1C` [Example 53, N-(4-Hydroxyphenyl)-N,1,2-trimethyl-5-(2-{[(3R)-3-methyl-3,4-dihydroisoquinolin-2(1H)-yl]carbonyl}-5-{[(phenoxyacetyl)amino]methyl}phenyl)-1H-pyrrole-3-carboxamide] were, in that order, 43.5 nM and 293 nM.
For `Cc1c(C(=O)N(c2ccc(O)cc2)c2cnc3c(ccn3C)c2)cc(-c2cc(CNC(=O)COc3ccccc3)ccc2C(=O)N2Cc3ccccc3C[C@H]2C)n1C` [Example 54, N-(4-Hydroxyphenyl)-1,2-dimethyl-5-(2-{[(3R)-3-methyl-3,4-dihydroisoquinolin-2(1H)-yl]carbonyl}-5-{[(phenoxyacetyl)amino]methyl}phenyl)-N-(1-methyl-1H-pyrrolo[2,3-b]pyridin-5-yl)-1H-pyrrole-3-carboxamide], the IC50 at Bcl-2 protein (read-out: IC50 (nM) Bcl-2 FP) was 18 nM; in experiment [1] (Homo sapiens, RS4-11, 48 h), 30.5 nM.
Regarding `Cc1c(C(=O)N(C)c2ccc(O)cc2)cc(-c2cc(CCNS(=O)(=O)CCc3ccc(F)cc3)ccc2C(=O)N2Cc3ccccc3C[C@H]2C)n1C` [Example 55, 5-(5-[2-({[2-(4-Fluorophenyl)ethyl]sulphonyl}amino)ethyl]-2-{[(3R)-3-methyl-3,4-dihydroisoquinolin-2(1H)-yl]carbonyl}phenyl)-N-(4-hydroxyphenyl)-N,1,2-trimethyl-1H-pyrrole-3-carboxamide], the IC50 is 210 nM on Bcl-2 protein (read-out: IC50 (nM) Bcl-2 FP) and greater than 600 nM in experiment [1] (Homo sapiens, RS4-11, 48 h).
The corresponding values for `Cc1c(C(=O)N(C)c2ccc(O)cc2)cc(-c2cc(CCNC(=O)NCc3ccccc3)ccc2C(=O)N2Cc3ccccc3C[C@H]2C)n1C` [Example 56, 5-(5-{2-[(Benzylcarbamoyl)amino]ethyl}-2-{[(3R)-3-methyl-3,4-dihydroisoquinolin-2(1H)-yl]carbonyl}phenyl)-N-(4-hydroxyphenyl)-N,1,2-trimethyl-1H-pyrrole-3-carboxamide] are 75 nM and greater than 600 nM.
With `Cc1c(C(=O)N(C)c2ccc(O)cc2)cc(-c2cc(CCNC(=O)Cc3ccccc3)ccc2C(=O)N2Cc3ccccc3C[C@H]2C)n1C` [Example 57, N-(4-Hydroxyphenyl)-N,1,2-trimethyl-5-(2-{[(3R)-3-methyl-3,4-dihydroisoquinolin-2(1H)-yl]carbonyl}-5-{2-[(phenylacetyl)amino]ethyl}phenyl)-1H-pyrrole-3-carboxamide], the IC50 at Bcl-2 protein (read-out: IC50 (nM) Bcl-2 FP) was 80 nM; in experiment [1] (Homo sapiens, RS4-11, 48 h), greater than 600 nM.
The corresponding values for `Cc1c(C(=O)N(C)c2ccc(O)cc2)cc(-c2cc(CCNC(=O)Nc3ccccc3)ccc2C(=O)N2Cc3ccccc3C[C@H]2C)n1C` [Example 58, N-(4-Hydroxyphenyl)-N,1,2-trimethyl-5-(2-{[(3R)-3-methyl-3,4-dihydroisoquinolin-2(1H)-yl]carbonyl}-5-{2-[(phenylcarbamoyl)amino]ethyl}phenyl)-1H-pyrrole-3-carboxamide] are 133 nM and greater than 600 nM.
Consider `Cc1c(C(=O)N(C)c2ccc(O)cc2)cc(-c2ccc(CNS(=O)(=O)CCc3ccc(F)cc3)cc2C(=O)N2Cc3ccccc3C[C@H]2C)n1C` [Example 59, 5-(4-[({[2-(4-Fluorophenyl)ethyl]sulphonyl}amino)methyl]-2-{[(3R)-3-methyl-3,4-dihydroisoquinolin-2(1H)-yl]carbonyl}phenyl)-N-(4-hydroxyphenyl)-N,1,2-trimethyl-1H-pyrrole-3-carboxamide], for which the IC50 on Bcl-2 protein (read-out: IC50 (nM) Bcl-2 FP) is 134 nM; in experiment [1] (Homo sapiens, RS4-11, 48 h), greater than 600 nM.
The like results for `Cc1c(C(=O)N(c2ccncc2)c2ccc(O)cc2)cc(-c2cc3c(cc2C(=O)N2Cc4ccccc4C[C@H]2C)OCO3)n1C` [Example 61, N-(4-Hydroxyphenyl)-1,2-dimethyl-5-(6-{[(3R)-3-methyl-3,4-dihydroisoquinolin-2(1H)-yl]carbonyl}-1,3-benzodioxol-5-yl)-N-(pyridin-4-yl)-1H-pyrrole-3-carboxamide hydrochloride] were, in that order, 4.5 nM and 37.8 nM.
The corresponding values for `COc1cc(C(=O)N2Cc3ccccc3C[C@H]2C)c(-c2cc(C(=O)N(c3ccc(O)cc3)c3cnn(C)c3)c(C)n2C)cc1F` [Example 62, 5-(5-Fluoro-4-methoxy-2-{[(3R)-3-methyl-3,4-dihydroisoquinolin-2(1H)-yl]carbonyl}phenyl)-N-(4-hydroxyphenyl)-1,2-dimethyl-N-(1-methyl-1H-pyrazol-4-yl)-1H-pyrrole-3-carboxamide] are 14.3 nM and 127 nM.
As for `Cc1c(C(=O)N(c2ccc(O)cc2)c2cnc3c(ccn3C)c2)cc(-c2cc(Cl)ccc2C(=O)N2Cc3ccccc3C[C@H]2C)n1C` [Example 63, 5-(5-Chloro-2-{[(3R)-3-methyl-3,4-dihydroisoquinolin-2(1H)-yl]-carbonyl}phenyl)-N-(4-hydroxyphenyl)-1,2-dimethyl-N-(1-methyl-1H-pyrrolo[2,3-b]-pyridin-5-yl)-1H-pyrrole-3-carboxamide], the IC50 was found to be 5.1 nM on Bcl-2 protein (read-out: IC50 (nM) Bcl-2 FP) and 11.2 nM in experiment [1] (Homo sapiens, RS4-11, 48 h).
